In ChEMBL document CHEMBL4330132, “5-Keto-3-cyano-2,4-diaminothiophenes as selective maternal embryonic leucine zipper kinase inhibitors” (Bioorg Med Chem Lett, 2019):

Tests used:
[1] = target: Serine/threonine-protein kinase D3 (Homo sapiens) (UniProt O94806); experiment: Binding affinity to wild-type human partial length PRKD3 (S543 to E863 residues) expressed in bacterial expression system assessed as residual binding level at 1 uM by Kinomescan method relative to control
[2] = target: Ribosomal protein S6 kinase alpha-3 (Homo sapiens) (UniProt P51812); experiment: Binding affinity to wild-type human partial length N-terminal RSK2 kinase domain 1 (M1 to D394 residues) expressed in mammalian expression system assessed as residual binding level at 1 uM by Kinomescan method relative to control
[3] = target: Glycogen synthase kinase-3 alpha (Homo sapiens) (UniProt P49840); experiment: Binding affinity to wild-type human full length GSK3A (M1 to S483 residues) expressed in bacterial expression system assessed as residual binding level at 1 uM by Kinomescan method relative to control
[4] = target: Serine/threonine-protein kinase MRCK gamma (Homo sapiens) (UniProt Q6DT37); experiment: Binding affinity to wild-type human partial length DMPK2 (S46 to S408 residues) expressed in bacterial expression system assessed as residual binding level at 1 uM by Kinomescan method relative to control
[5] = target: Proto-oncogene tyrosine-protein kinase receptor Ret (Homo sapiens) (UniProt P07949); experiment: Binding affinity to wild-type human partial length RET (E713 to D1014 residues) expressed in bacterial expression system assessed as residual binding level at 1 uM by Kinomescan method relative to control
[6] = target: Mast/stem cell growth factor receptor Kit (Homo sapiens) (UniProt P10721); experiment: Binding affinity to wild-type human partial length KIT (I571 to D952 residues) expressed in bacterial expression system assessed as residual binding level at 1 uM by Kinomescan method relative to control
[7] = target: Serine/threonine-protein kinase 32B (Homo sapiens) (UniProt Q9NY57); experiment: Binding affinity to wild-type human full length YANK2 (M1 to S414 residues) expressed in bacterial expression system assessed as residual binding level at 1 uM by Kinomescan method relative to control
[8] = system: Tyrosine-protein kinase ABL1 (Homo sapiens), P00519 [Q252H]; experiment: Binding affinity to human phosphorylated ABL1 Q252H mutant expressed in mammalian expression system assessed as residual binding level at 1 uM by Kinomescan method relative to control
[9] = target: Mitogen-activated protein kinase kinase kinase 20 (Homo sapiens) (UniProt Q9NYL2); experiment: Binding affinity to wild-type human partial length ZAK (M1 to L331 residues) expressed in bacterial expression system assessed as residual binding level at 1 uM by Kinomescan method relative to control
[10] = target: Activin receptor type-2B (Homo sapiens) (UniProt Q13705); experiment: Binding affinity to wild-type human ACVR2B (H169 to D504 residues) expressed in bacterial expression system assessed as residual binding level at 1 uM by Kinomescan method relative to control
[11] = target: Serine/threonine-protein kinase B-raf (Homo sapiens) (UniProt P15056); experiment: Binding affinity to wild-type human partial length BRAF (S429 to E741 residues) expressed in mammalian expression system assessed as residual binding level at 1 uM by Kinomescan method relative to control
[12] = target: Mitogen-activated protein kinase kinase kinase kinase 2 (Homo sapiens) (UniProt Q12851); experiment: Binding affinity to wild-type human partial length MAP4K2 (M1 to G318 residues) expressed in mammalian expression system assessed as residual binding level at 1 uM by Kinomescan method relative to control
[13] = target: Serine/threonine-protein kinase PLK4 (Homo sapiens) (UniProt O00444); experiment: Binding affinity to wild-type human partial length PLK4 (M1 to S273 residues) expressed in mammalian expression system assessed as residual binding level at 1 uM by Kinomescan method relative to control
[14] = target: Cyclin-dependent kinase-like 5 (Homo sapiens) (UniProt O76039); experiment: Binding affinity to wild-type human partial length CDKL5 (M1 to S337 residues) expressed in mammalian expression system assessed as residual binding level at 1 uM by Kinomescan method relative to control
[15] = target: NUAK family SNF1-like kinase 1 (Homo sapiens) (UniProt O60285); experiment: Binding affinity to wild-type human partial length ARK5 (E25 to I332 residues) expressed in bacterial expression system assessed as residual binding level at 1 uM by Kinomescan method relative to control
[16] = target: Ephrin type-B receptor 4 (Homo sapiens) (UniProt P54760); experiment: Binding affinity to wild-type human partial length EPHB4 (H585 to G892 residues) expressed in bacterial expression system assessed as residual binding level at 1 uM by Kinomescan method relative to control
[17] = target: Protein kinase C eta type (Homo sapiens) (UniProt P24723); experiment: Binding affinity to wild-type human partial length PRKCH (S324 to P683 residues) expressed in bacterial expression system assessed as residual binding level at 1 uM by Kinomescan method relative to control
[18] = target: Serine/threonine-protein kinase DCLK1 (Homo sapiens) (UniProt O15075); experiment: Binding affinity to wild-type human partial length DCAMKL1 (L270 to A662 residues) expressed in mammalian expression system assessed as residual binding level at 1 uM by Kinomescan method relative to control
[19] = target: Calcium/calmodulin-dependent protein kinase kinase 1 (Homo sapiens) (UniProt Q8N5S9); experiment: Binding affinity to wild-type human partial length CAMKK1 (R65 to E414 residues) expressed in bacterial expression system assessed as residual binding level at 1 uM by Kinomescan method relative to control
[20] = target: Calcium/calmodulin-dependent protein kinase type IV (Homo sapiens) (UniProt Q16566); experiment: Binding affinity to wild-type human partial length CAMK4 (A22 to A322 residues) expressed in bacterial expression system assessed as residual binding level at 1 uM by Kinomescan method relative to control
[21] = target: Myosin light chain kinase 2, skeletal/cardiac muscle (Homo sapiens) (UniProt Q9H1R3); experiment: Binding affinity to wild-type human partial length MYLK2 (D258 to K570 residues) expressed in bacterial expression system assessed as residual binding level at 1 uM by Kinomescan method relative to control
[22] = target: Testis-specific serine/threonine-protein kinase 1 (Homo sapiens) (UniProt Q9BXA7); experiment: Binding affinity to wild-type human full length TSSK1B (M1 to Q367 residues) expressed in bacterial expression system assessed as residual binding level at 1 uM by Kinomescan method relative to control
[23] = target: Mitogen-activated protein kinase 6 (Homo sapiens) (UniProt Q16659); experiment: Binding affinity to wild-type human partial length ERK3 (M1 to P413 residues) expressed in bacterial expression system assessed as residual binding level at 1 uM by Kinomescan method relative to control
[24] = system: Phosphatidylinositol 4,5-bisphosphate 3-kinase catalytic subunit alpha isoform (Homo sapiens), P42336 [H1047Y]; experiment: Binding affinity to human partial length PIK3CA H1047Y mutant (R108 to N1068 residues) expressed in mammalian expression system assessed as residual binding level at 1 uM by Kinomescan method relative to control

Sequence of NUAK family SNF1-like kinase 1 (Homo sapiens) (O60285 whole entry, the tested form may be a part): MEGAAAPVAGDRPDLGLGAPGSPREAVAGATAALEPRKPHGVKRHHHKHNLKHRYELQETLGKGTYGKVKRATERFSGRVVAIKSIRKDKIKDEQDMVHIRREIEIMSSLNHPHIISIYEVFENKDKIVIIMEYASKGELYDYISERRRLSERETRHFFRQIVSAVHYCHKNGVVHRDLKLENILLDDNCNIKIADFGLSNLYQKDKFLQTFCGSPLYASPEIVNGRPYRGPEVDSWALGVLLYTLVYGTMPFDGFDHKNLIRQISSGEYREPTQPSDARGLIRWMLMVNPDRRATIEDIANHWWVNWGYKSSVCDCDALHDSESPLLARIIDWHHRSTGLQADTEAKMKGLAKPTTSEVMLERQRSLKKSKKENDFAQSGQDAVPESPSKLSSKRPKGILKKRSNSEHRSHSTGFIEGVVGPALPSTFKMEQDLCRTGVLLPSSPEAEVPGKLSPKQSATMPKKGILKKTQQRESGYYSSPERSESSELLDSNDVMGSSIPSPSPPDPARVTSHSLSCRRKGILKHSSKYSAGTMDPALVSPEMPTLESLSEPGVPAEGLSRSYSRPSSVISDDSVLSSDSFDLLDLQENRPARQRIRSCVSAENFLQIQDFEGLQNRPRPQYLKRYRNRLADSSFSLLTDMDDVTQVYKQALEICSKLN
Sequence of Myosin light chain kinase 2, skeletal/cardiac muscle (Homo sapiens) (Q9H1R3 whole entry, the tested form may be a part): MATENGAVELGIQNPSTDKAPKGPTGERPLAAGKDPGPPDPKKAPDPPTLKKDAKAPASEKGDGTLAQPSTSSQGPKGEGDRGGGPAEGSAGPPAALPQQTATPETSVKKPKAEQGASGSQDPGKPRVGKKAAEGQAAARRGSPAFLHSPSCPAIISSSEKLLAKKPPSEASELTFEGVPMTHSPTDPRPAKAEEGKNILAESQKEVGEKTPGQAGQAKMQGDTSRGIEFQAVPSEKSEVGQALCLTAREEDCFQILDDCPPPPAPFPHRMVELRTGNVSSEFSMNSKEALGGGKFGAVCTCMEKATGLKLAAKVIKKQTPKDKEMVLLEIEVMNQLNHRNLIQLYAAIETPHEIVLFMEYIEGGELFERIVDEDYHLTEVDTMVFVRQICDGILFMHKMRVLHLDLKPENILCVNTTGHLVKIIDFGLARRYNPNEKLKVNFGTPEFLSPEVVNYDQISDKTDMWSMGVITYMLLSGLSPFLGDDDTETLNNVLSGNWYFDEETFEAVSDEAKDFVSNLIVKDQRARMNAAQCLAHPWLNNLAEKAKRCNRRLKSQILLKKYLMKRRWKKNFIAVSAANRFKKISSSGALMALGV
Sequence of Serine/threonine-protein kinase MRCK gamma (Homo sapiens) (Q6DT37 whole entry, the tested form may be a part): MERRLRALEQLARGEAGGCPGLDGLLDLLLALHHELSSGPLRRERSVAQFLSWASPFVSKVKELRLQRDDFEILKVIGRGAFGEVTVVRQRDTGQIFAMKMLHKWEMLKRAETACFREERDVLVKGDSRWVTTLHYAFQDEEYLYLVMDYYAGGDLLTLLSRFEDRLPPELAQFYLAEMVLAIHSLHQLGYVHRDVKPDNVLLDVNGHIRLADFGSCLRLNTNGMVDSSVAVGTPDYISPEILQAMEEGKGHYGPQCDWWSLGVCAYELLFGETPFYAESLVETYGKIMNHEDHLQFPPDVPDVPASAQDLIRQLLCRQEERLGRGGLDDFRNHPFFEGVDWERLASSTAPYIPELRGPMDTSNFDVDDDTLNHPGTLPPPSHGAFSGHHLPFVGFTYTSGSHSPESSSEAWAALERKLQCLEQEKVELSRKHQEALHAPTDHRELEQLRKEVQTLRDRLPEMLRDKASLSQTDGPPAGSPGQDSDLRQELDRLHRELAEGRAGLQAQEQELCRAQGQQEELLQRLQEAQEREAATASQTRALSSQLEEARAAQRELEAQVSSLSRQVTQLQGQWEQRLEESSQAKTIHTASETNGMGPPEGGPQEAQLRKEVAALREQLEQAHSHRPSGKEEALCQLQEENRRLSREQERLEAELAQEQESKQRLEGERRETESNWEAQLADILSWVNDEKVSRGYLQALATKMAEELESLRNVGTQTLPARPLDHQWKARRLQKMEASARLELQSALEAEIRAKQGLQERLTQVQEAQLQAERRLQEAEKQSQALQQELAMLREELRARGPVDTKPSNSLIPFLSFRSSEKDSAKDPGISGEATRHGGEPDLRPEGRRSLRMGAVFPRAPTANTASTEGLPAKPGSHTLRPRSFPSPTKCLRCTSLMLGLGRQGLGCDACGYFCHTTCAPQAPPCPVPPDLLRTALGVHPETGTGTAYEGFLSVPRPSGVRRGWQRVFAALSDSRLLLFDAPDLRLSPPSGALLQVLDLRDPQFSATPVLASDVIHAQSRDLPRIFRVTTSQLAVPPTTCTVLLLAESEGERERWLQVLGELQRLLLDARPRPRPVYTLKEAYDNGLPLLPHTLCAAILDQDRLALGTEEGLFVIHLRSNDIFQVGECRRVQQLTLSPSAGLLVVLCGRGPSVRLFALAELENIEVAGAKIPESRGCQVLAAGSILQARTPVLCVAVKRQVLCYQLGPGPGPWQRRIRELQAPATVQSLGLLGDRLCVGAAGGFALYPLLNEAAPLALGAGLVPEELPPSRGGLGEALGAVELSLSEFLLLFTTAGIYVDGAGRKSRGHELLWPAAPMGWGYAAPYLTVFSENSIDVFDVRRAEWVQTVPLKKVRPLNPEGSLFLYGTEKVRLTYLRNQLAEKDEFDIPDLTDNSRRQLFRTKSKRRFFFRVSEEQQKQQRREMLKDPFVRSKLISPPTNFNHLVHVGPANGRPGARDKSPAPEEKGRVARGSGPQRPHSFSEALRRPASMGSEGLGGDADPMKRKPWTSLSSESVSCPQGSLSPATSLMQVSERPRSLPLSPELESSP
Sequence of Serine/threonine-protein kinase PLK4 (Homo sapiens) (O00444 whole entry, the tested form may be a part): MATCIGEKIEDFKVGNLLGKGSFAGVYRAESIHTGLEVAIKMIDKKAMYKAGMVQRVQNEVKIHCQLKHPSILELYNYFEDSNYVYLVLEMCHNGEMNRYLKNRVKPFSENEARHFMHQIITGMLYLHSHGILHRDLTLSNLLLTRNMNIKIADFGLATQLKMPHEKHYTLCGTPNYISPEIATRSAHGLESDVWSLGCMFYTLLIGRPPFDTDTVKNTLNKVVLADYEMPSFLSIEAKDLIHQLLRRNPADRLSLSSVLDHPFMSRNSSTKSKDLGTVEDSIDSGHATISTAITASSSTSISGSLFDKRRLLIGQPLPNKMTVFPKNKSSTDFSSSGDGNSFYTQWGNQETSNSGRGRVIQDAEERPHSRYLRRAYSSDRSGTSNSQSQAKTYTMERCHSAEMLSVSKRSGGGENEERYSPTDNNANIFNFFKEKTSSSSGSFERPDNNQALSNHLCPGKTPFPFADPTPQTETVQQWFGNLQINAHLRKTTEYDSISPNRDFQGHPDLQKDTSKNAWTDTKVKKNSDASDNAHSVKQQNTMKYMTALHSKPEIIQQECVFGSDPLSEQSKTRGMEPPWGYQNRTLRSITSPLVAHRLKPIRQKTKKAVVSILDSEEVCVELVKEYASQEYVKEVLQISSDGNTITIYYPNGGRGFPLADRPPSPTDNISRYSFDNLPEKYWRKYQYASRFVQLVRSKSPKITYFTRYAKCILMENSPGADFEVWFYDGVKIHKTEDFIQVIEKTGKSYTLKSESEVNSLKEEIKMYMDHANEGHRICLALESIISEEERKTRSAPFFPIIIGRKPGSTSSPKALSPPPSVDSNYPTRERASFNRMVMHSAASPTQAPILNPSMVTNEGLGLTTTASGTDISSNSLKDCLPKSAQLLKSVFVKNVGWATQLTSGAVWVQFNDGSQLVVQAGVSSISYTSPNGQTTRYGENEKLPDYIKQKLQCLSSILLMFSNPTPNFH
Sequence of Mitogen-activated protein kinase kinase kinase kinase 2 (Homo sapiens) (Q12851 whole entry, the tested form may be a part): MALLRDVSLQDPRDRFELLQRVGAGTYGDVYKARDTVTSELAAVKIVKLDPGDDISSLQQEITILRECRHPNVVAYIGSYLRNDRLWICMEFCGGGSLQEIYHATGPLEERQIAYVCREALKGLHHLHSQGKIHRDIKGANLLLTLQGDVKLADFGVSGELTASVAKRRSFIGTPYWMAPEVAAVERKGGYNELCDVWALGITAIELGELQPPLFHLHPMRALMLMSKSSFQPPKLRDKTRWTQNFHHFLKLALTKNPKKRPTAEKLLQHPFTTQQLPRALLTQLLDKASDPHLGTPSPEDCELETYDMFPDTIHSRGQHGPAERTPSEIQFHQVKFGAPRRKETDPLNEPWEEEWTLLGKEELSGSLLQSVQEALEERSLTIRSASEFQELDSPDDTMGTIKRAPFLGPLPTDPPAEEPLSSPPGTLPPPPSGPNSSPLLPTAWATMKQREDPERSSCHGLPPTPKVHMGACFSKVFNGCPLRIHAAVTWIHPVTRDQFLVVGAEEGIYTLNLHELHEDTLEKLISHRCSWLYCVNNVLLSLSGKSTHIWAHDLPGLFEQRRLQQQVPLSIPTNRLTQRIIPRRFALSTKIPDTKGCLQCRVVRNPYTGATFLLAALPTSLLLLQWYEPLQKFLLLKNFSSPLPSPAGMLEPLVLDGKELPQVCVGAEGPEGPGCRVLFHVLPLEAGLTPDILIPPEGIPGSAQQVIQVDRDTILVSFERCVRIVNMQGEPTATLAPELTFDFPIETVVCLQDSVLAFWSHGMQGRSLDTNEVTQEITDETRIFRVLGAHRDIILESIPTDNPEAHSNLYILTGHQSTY
Sequence of Glycogen synthase kinase-3 alpha (Homo sapiens) (P49840 2-483 limits assumed): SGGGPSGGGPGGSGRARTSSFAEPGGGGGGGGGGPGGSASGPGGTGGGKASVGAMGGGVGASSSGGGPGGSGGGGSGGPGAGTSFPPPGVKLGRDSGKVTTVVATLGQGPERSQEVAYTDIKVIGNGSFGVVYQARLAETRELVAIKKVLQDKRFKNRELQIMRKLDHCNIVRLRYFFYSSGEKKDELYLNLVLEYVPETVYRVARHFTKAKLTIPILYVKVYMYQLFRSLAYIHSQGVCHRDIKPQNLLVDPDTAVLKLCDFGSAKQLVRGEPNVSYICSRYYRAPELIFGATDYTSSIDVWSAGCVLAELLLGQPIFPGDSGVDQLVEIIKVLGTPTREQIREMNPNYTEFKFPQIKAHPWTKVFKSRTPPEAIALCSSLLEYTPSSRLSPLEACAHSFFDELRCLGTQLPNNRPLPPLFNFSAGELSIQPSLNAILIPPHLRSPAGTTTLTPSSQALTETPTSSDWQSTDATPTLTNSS

`CC(C)Nc1sc(C(=O)c2ccc(Cl)s2)c(N)c1C#N` gave an Activity [1] of 62%, an Activity [2] of 99% and an Activity [3] of 100%. The Activity [4] was 100%, the Activity [5] was 97% and the Activity [6] was 76%. It also gave an Activity [7] of 100%, an Activity [8] of 100% and an Activity [9] of 95%. It also gave an Activity [10] of 92%, an Activity [11] of 89% and an Activity [12] of 100%. The Activity [13] was 100%, the Activity [14] was 100% and the Activity [15] was 82%. For the same molecule, the Activity [16] was 93%, the Activity [17] was 84% and the Activity [18] was 100%. The Activity [19] was 72%, the Activity [20] was 100% and the Activity [21] was 81%. The Activity [22] was 100%, the Activity [23] was 100% and the Activity [24] was 100%.
